Values of other authors in patent US12290525B2, “5 alpha dihydrotestosterone formulations and associated methods of use and treatment” (priority 2022, dated 2025).

Legend:
[1] = biological target: estrogen receptor (ER) subtype ERβ (Homo sapiens, UniProt Q92731)
estrogen receptor (ER) subtype ERβ, sequence (Q92731 whole entry): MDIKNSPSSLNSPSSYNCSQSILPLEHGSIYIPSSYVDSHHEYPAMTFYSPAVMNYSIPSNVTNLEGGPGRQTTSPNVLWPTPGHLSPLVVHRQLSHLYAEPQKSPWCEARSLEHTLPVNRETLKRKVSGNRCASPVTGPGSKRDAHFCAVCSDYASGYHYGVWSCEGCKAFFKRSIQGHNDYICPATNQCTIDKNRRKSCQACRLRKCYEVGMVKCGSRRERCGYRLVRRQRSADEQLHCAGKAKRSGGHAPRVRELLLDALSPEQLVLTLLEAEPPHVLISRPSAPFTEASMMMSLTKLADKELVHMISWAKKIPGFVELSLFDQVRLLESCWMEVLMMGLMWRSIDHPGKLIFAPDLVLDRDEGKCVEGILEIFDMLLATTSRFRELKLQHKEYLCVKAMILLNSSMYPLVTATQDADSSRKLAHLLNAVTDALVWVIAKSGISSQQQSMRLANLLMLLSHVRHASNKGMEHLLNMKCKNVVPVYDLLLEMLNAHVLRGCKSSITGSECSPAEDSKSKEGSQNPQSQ

Row | SMILES | activity at the GABAA receptor (GABAA receptor) | activity at ERβ [1]
1 | C[C@]12CC[C@@H](O)C[C@@H]1CC[C@@H]1[C@@H]2CC[C@]2(C)[C@@H](O)CC[C@@H]12 [3α-Androstanediol, 3α-androstanediol] | potent positive allosteric modulator | –
2 | C[C@]12CC[C@H](O)C[C@@H]1CC[C@@H]1[C@@H]2CC[C@]2(C)[C@@H](O)CC[C@@H]12 [3β-androstanediol] | – | potent and selective agonist
